In DBAASP:
≈ marks a conversion by molar mass, not a printed value.

Legend:
Assay in all cases: ≥ marks a high value that may be exact or a test limit, other limits are often not marked, values filed in µg/mL are converted to µM
Streptococcus mutans = test system: Streptococcus mutans
[1] = test system: Pseudomonas aeruginosa Ps4
[2] = test system: Staphylococcus aureus USA 300
Staphylococcus aureus = test system: Staphylococcus aureus
Escherichia coli K-12 = test system: Escherichia coli K-12
[3] = test system: Candida albicans F7-39/IDE99
Pseudomonas aeruginosa = test system: Pseudomonas aeruginosa
[4] = test system: Micrococcus luteus CCM 144
Escherichia coli B = test system: Escherichia coli B
Bacillus subtilis 168 = test system: Bacillus subtilis 168
[5] = test system: Pseudomonas aeruginosa ATCC 27853
[6] = test system: Staphylococcus aureus ATCC 6538
[7] = test system: Escherichia coli ATCC 25922

CC(C)C[C@H](NC(=O)[C@H](CC(C)C)NC(=O)[C@H](Cc1cnc[nH]1)NC(=O)[C@H](Cc1cnc[nH]1)NC(=O)[C@H](CC(C)C)NC(=O)[C@H](CCCCN)NC(=O)[C@H](CCCCN)NC(=O)[C@H](CC(C)C)NC(=O)[C@H](CC(C)C)NC(=O)[C@H](CCCN=C(N)N)NC(=O)[C@H](CCCN=C(N)N)NC(=O)[C@H](Cc1c[nH]c2ccccc12)NC(=O)[C@H](CCCN=C(N)N)NC(=O)CNC(=O)CNC(=O)CNC(=O)[C@H](Cc1ccccc1)NC(=O)[C@H](CCCN=C(N)N)NC(=O)[C@H](CCCN=C(N)N)NC(=O)[C@H](Cc1ccccc1)NC(=O)[C@H](Cc1c[nH]c2ccccc12)NC(=O)[C@H](CCCCN)NC(=O)[C@H](Cc1c[nH]c2ccccc12)NC(=O)[C@H](Cc1ccccc1)NC(=O)[C@H](CCCCN)NC(=O)[C@H](CCCCN)NC(=O)[C@@H](N)Cc1ccccc1)C(=O)N[C@@H](Cc1cnc[nH]1)C(N)=O [FKKFWKWFRRFGGGRWRRLLKKLHHLLH]
MIC (Streptococcus mutans): 4.28 µM (≈ 16 µg/mL)

CC[C@H](C)[C@H](NC(=O)[C@H](CC(N)=O)NC(=O)[C@H](CCCN=C(N)N)NC(=O)[C@H](CCC(N)=O)NC(=O)[C@H](Cc1c[nH]c2ccccc12)NC(=O)[C@@H](N)Cc1ccccc1)C(=O)N[C@@H](CCCN=C(N)N)C(=O)N[C@@H](CCCCN)C(=O)N[C@@H](CC(C)C)C(=O)N[C@@H](CCCN=C(N)N)C(N)=O [FWQRNIRKLR]
MIC [1]: ≥ 176 µM

CC[C@H](C)[C@H](NC(=O)[C@H](CCCN=C(N)N)NC(=O)[C@@H](NC(=O)[C@H](CC(N)=O)NC(=O)[C@H](CCCN=C(N)N)NC(=O)CNC(=O)[C@H](Cc1c[nH]c2ccccc12)NC(=O)[C@@H](N)Cc1ccccc1)[C@@H](C)CC)C(=O)N[C@@H](CCCN=C(N)N)C(=O)N[C@@H](CCCN=C(N)N)C(N)=O [FWGRNIRIRR]
MIC [1]: ≥ 182 µM

CC[C@H](C)[C@H](NC(=O)[C@H](CC(C)C)NC(=O)[C@@H]1CCCN1C(=O)[C@H](Cc1ccccc1)NC(=O)[C@H](CC(C)C)NC(=O)[C@@H](N)Cc1ccccc1)C(=O)N[C@H](C(=O)N[C@@H](CO)C(=O)N[C@@H](Cc1ccccc1)C(=O)N[C@@H](CC(C)C)C(=O)N[C@@H](CO)C(=O)N[C@@H](CCCCN)C(=O)N[C@H](C(=O)N[C@@H](CC(C)C)C(=O)O)C(C)C)[C@@H](C)O [FLFPLITSFLSKVL]
MIC [2]: ≥ 50 µM
MIC (Staphylococcus aureus): 130 µM (≈ 211 µg/mL)
MIC (Escherichia coli K-12): ≥ 100 µM

NC(=O)CC[C@H](NC(=O)[C@H](Cc1c[nH]c2ccccc12)NC(=O)[C@@H](N)Cc1ccccc1)C(=O)N[C@@H](CCCN=C(N)N)C(=O)N[C@@H](CC(N)=O)C(=O)N[C@@H](Cc1c[nH]c2ccccc12)C(=O)N[C@@H](CCCN=C(N)N)C(=O)N[C@@H](Cc1ccccc1)C(=O)N[C@@H](CCCN=C(N)N)C(=O)N[C@@H](CCCN=C(N)N)C(N)=O [FWQRNWRFRR]
MIC [1]: ≥ 161 µM

CC[C@H](C)[C@H](NC(=O)[C@H](Cc1cnc[nH]1)NC(=O)[C@H](CCCCN)NC(=O)[C@H](CC(C)C)NC(=O)[C@H](CCCCN)NC(=O)[C@H](C)NC(=O)CNC(=O)[C@H](Cc1c[nH]c2ccccc12)NC(=O)[C@H](CC(N)=O)NC(=O)[C@@H](N)CC(C)C)C(=O)N[C@H](C(=O)N[C@@H](CCCCN)C(N)=O)[C@@H](C)CC [LNWGAKLKHIIK]
MIC [3]: ≥ 50 µM
MIC (Pseudomonas aeruginosa): > 100 µM
MIC [4]: ≥ 38.8 µM
MIC (Escherichia coli B): ≥ 100 µM
MIC (Bacillus subtilis 168): ≥ 55.8 µM
MIC (Staphylococcus aureus): > 100 µM

NC(=O)[C@H](Cc1ccccc1)NC(=O)[C@H](CCCN=C(N)N)NC(=O)[C@H](Cc1cnc[nH]1)NC(=O)[C@H](Cc1ccccc1)NC(=O)[C@H](Cc1c[nH]c2ccccc12)NC(=O)[C@H](Cc1cnc[nH]1)NC(=O)[C@H](Cc1c[nH]c2ccccc12)NC(=O)[C@H](Cc1ccccc1)NC(=O)[C@H](Cc1ccc(O)cc1)NC(=O)[C@H](Cc1cnc[nH]1)NC(=O)[C@@H](N)Cc1ccccc1 [FHYFWHWFHRF]
MIC (Streptococcus mutans): ≥ 73.1 µM

CC[C@H](C)[C@H](NC(=O)[C@H](CCCCN)NC(=O)[C@H](CCCN=C(N)N)NC(=O)[C@@H](NC(=O)[C@H](CC(N)=O)NC(=O)[C@H](CCCN=C(N)N)NC(=O)[C@H](CCC(N)=O)NC(=O)[C@H](Cc1c[nH]c2ccccc12)NC(=O)[C@@H](N)Cc1ccccc1)[C@@H](C)CC)C(=O)N[C@@H](CCCN=C(N)N)C(N)=O [FWQRNIRKIR]
MIC [1]: ≥ 176 µM

CC(C)C[C@H](NC(=O)[C@H](C)NC(=O)[C@H](CCC(=O)O)NC(=O)[C@H](CCCCN)NC(=O)[C@H](C)NC(=O)[C@H](CCC(=O)O)NC(=O)[C@H](Cc1cnc[nH]1)NC(=O)[C@H](CC(C)C)NC(=O)[C@H](C)NC(=O)[C@@H](N)CCCN=C(N)N)C(=O)N[C@@H](CCCCN)C(=O)O [RALHEAKEALK]
MIC (Streptococcus mutans): ≥ 198 µM

CC(C)C[C@H](NC(=O)[C@H](CCCCN)NC(=O)[C@H](CCCCN)NC(=O)[C@@H](N)C(C)C)C(=O)N[C@@H](C)C(=O)N[C@@H](CCCCN)C(=O)N[C@@H](CC(C)C)C(=O)N[C@H](C(=O)N[C@@H](CCCN=C(N)N)C(=O)N[C@@H](CCCN=C(N)N)C(=O)N[C@@H](Cc1ccccc1)C(N)=O)C(C)C [VKKLAKLVRRF]
MIC (Streptococcus mutans): 16.7 µM (≈ 22.6 µg/mL)

CC[C@H](C)[C@H](NC(=O)[C@H](CC(N)=O)NC(=O)[C@H](CCCN=C(N)N)NC(=O)[C@H](C)NC(=O)[C@H](Cc1c[nH]c2ccccc12)NC(=O)[C@@H](NC(=O)[C@@H](N)Cc1ccccc1)C(C)C)C(=O)N[C@@H](CCCN=C(N)N)C(=O)N[C@@H](CCCCN)C(=O)N[C@H](C(=O)N[C@@H](CCCN=C(N)N)C(N)=O)C(C)C [FVWARNIRKVR]
MIC [1]: ≥ 173 µM

CC[C@H](C)[C@H](NC(=O)[C@H](CCCCN)NC(=O)[C@H](CCC(N)=O)NC(=O)[C@@H](NC(=O)[C@@H](NC(=O)[C@H](CCCCN)NC(=O)[C@H](CCCCN)NC(=O)[C@H](Cc1ccccc1)NC(=O)[C@H](CCC(=O)O)NC(=O)CN)[C@@H](C)CC)C(C)C)C(=O)N[C@@H](CCCCN)C(=O)N[C@@H](CC(=O)O)C(=O)N[C@@H](Cc1ccccc1)C(=O)N[C@@H](CC(C)C)C(=O)N[C@@H](CCCCN)C(=O)N[C@@H](CC(N)=O)C(=O)N[C@@H](CC(C)C)C(=O)N[C@H](C(N)=O)C(C)C [GEFKKIVQKIKDFLKNLV]
MIC [2]: ≥ 120 µM
MIC (Escherichia coli K-12): ≥ 60 µM

CC[C@H](C)[C@H](NC(=O)[C@H](C)NC(=O)CNC(=O)[C@H](Cc1c[nH]c2ccccc12)NC(=O)[C@H](CC(N)=O)NC(=O)[C@@H](N)CC(C)C)C(=O)N[C@@H](CC(C)C)C(=O)N[C@@H](CCCCN)C(=O)N[C@@H](Cc1cnc[nH]1)C(=O)N[C@@H](CCCCN)C(=O)N[C@H](C(=O)N[C@@H](CCCCN)C(N)=O)[C@@H](C)CC [LNWGAILKHKIK]
MIC [3]: ≥ 100 µM
MIC (Pseudomonas aeruginosa): > 100 µM
MIC [4]: 30 µM (≈ 42.6 µg/mL)
MIC (Escherichia coli B): ≥ 100 µM
MIC (Bacillus subtilis 168): ≥ 41.7 µM
MIC (Staphylococcus aureus): > 100 µM

CC[C@H](C)[C@H](NC(=O)[C@H](CCCCN)NC(=O)[C@H](CC(N)=O)NC(=O)[C@H](CCCN=C(N)N)NC(=O)[C@@H](NC(=O)[C@H](CC(N)=O)NC(=O)[C@H](CCCN=C(N)N)NC(=O)[C@@H](NC(=O)[C@H](CCSC)NC(=O)[C@H](CCCCN)NC(=O)[C@H](CCC(=O)O)NC(=O)[C@@H](NC(=O)[C@H](CCCCN)NC(=O)[C@H](CCCCN)NC(=O)[C@H](Cc1ccccc1)NC(=O)[C@@H](NC(=O)[C@H](CCCCN)NC(=O)[C@H](Cc1c[nH]c2ccccc12)NC(=O)[C@@H](N)CCCCN)C(C)C)[C@@H](C)CC)[C@@H](C)CC)[C@@H](C)CC)C(=O)N[C@@H](C)C(=O)N[C@@H](CCCCN)C(N)=O [KWKVFKKIEKMIRNIRNKIAK]
MIC [5]: > 3 µM
MIC [6]: > 6 µM
MIC (Escherichia coli K-12): 3 µM (≈ 8.01 µg/mL)

CC(C)C[C@H](NC(=O)[C@H](C)NC(=O)CNC(=O)[C@H](Cc1c[nH]c2ccccc12)NC(=O)[C@H](CC(N)=O)NC(=O)[C@@H](N)CC(C)C)C(=O)N[C@@H](CC(C)C)C(=O)N[C@@H](CCCCN)C(=O)N[C@@H](Cc1cnc[nH]1)C(=O)N[C@@H](CC(C)C)C(=O)N[C@@H](CC(C)C)C(=O)N[C@@H](CCCCN)C(N)=O [LNWGALLKHLLK]
MIC [3]: 6.7 µM (≈ 9.41 µg/mL)
MIC (Pseudomonas aeruginosa): 40 µM (≈ 56.2 µg/mL)
MIC [4]: 2.2 µM (≈ 3.09 µg/mL)
MIC (Escherichia coli B): 3.8 µM (≈ 5.34 µg/mL)
MIC (Bacillus subtilis 168): 1.6 µM (≈ 2.25 µg/mL)
MIC (Staphylococcus aureus): 6.7 µM (≈ 9.41 µg/mL)

CCC(C)C(NC(=O)C(CC(N)=O)NC(=O)C(CCCN=C(N)N)NC(=O)C(CCC(N)=O)NC(=O)C(Cc1c[nH]c2ccccc12)NC(=O)C(CCC(N)=O)NC(=O)C(N)Cc1ccccc1)C(=O)NC(CCCN=C(N)N)C(=O)NC(CCCCN)C(=O)NC(C(=O)NC(CCCN=C(N)N)C(N)=O)C(C)C (stereo not given) [FQWQRNIRKVR]
MIC [7]: > 163 µM
MIC [1]: ≥ 163 µM

CC[C@H](C)[C@H](NC(=O)[C@H](CC(N)=O)NC(=O)[C@H](CCCN=C(N)N)NC(=O)[C@H](CCC(N)=O)NC(=O)[C@H](Cc1c[nH]c2ccccc12)NC(=O)[C@@H](N)Cc1ccccc1)C(=O)N[C@@H](Cc1c[nH]c2ccccc12)C(=O)N[C@@H](CCCN=C(N)N)C(=O)N[C@@H](CCCN=C(N)N)C(N)=O [FWQRNIWRR]
MIC [1]: ≥ 184 µM

CC(C)C[C@H](NC(=O)CN)C(=O)N[C@@H](CCCCN)C(=O)N[C@@H](CCCCN)C(=O)N[C@@H](CC(C)C)C(=O)N[C@@H](CC(C)C)C(=O)NCC(=O)N[C@@H](CCCCN)C(=O)N[C@@H](CC(C)C)C(=O)N[C@@H](CC(C)C)C(=O)N[C@@H](CCCCN)C(=O)N[C@@H](CCCCN)C(=O)N[C@@H](CC(C)C)C(=O)NCC(=O)N[C@@H](CCCCN)C(=O)N[C@@H](CC(C)C)C(=O)N[C@@H](CC(C)C)C(=O)N[C@@H](CC(C)C)C(=O)N[C@@H](CCCCN)C(=O)O [GLKKLLGKLLKKLGKLLLK]
MIC [2]: ≥ 160 µM
MIC (Escherichia coli K-12): 10 µM (≈ 21 µg/mL)
